Paper PMC1851987, “Identification of the Endogenous Key Substrates of the Human Organic Cation Transporter OCT2 and Their Implication in Function of Dopaminergic Neurons” (PLoS ONE, 2007)
Residue numbers refer to the chain shown, from its start. Marks after values point to notes of the source that are not given here.

Legend:
OCT2 variant R400C = molecular target: T1, OCT2 variant R400C (Homo sapiens, UniProt O15244, R400C/S270A); test: Specific uptake into HEK-293 cells transfected with OCT2 variant R400C (mutant 400C); conditions: for Clin: incubation with 10 µmol/l
T1 sequence (O15244 1-555 S270A/R400C): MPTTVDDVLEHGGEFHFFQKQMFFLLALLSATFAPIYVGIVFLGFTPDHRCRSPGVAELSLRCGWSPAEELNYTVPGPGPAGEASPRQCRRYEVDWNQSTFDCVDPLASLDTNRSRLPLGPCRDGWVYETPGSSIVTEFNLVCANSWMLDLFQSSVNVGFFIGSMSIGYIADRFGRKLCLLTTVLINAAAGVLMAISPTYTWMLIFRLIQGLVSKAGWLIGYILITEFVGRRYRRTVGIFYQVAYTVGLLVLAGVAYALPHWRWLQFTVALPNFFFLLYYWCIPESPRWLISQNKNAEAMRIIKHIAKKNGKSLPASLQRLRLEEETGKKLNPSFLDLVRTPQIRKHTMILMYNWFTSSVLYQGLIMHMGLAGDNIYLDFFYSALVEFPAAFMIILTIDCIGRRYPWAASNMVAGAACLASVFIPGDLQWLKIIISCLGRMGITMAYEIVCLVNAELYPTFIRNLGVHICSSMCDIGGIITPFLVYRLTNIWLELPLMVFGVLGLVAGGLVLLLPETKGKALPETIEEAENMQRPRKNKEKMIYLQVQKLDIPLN
Description: The cDNAs encoding the organic cation transporters OCT1 (GenBank accession no. NM_003057), OCT2 (NM_003058), and EMT (NM_021977) were amplified by RT-PCR from human liver, kidney, and placenta total RNA respectively, and subcloned into the eukaryotic expression vector pcDNA3. The cDNA encoding the norepinephrine transporter (SLC6A2) was kindly provided by C. Pifl (University of Vienna).
For uptake experiments, cells were grown on polystyrene dishes of 60 mm diameter to at least 80% confluence. Prior to addition of test compounds, culture medium was replaced by 3 ml HEPES-modified Krebs buffer (140.0 mmol/l NaCl, 5.0 mmol/l KCl, 2.0 mmol/l CaCl2, 1.0 mmol/l MgCl2, 10.0 mmol/l HEPES, and 5.0 mmol/l D-glucose, adjusted to pH 7.40), and cells were left to equilibrate for 60 min at 37°C. Uptake was terminated after indicated times by washing cells with ice-cold buffer. Cells were lysed with 1 ml of 4 mmol/l perchloric acid and lysates subjected to LC-MS-MS quantification. Cellular protein content was determined after solubilization of perchloric acid precipitates with 1 ml of […] NaOH using the bicinchoninic assay (BCA Protein Assay Kit, Pierce).
Chromatographic separations were performed on Hypercarb (5 µm, 50×2.1 mm; Thermo Electron), Aquasil C18 (3 µm, 100×4.6 mm; Thermo Electron), or Hilic columns (5 µm, 100×3.0 mm; Waters Atlantis) by isocratic or gradient elution using 0.1% aqueous formic acid (A) and acetonitrile or methanol (B) as solvent system. For quantification, SRM transitions of a precursor ion [M+H]^+ into a specific fragment ion (peak area ratios relative to IS) were recorded in positive ESI mode at 1.0–1.5 mTorr collision pressure and 10–40 eV collision energy. External calibration curves were obtained from serial dilutions of the analyte in 4 mmol/l HClO4 by linear or logistic regression. Detection limit was at least 0.001 nmol/mg protein.
Uptake versus time data were fitted by linear one-compartment kinetics: cin(t) = cin,∞·(1−e^−kex·t), where cin(t) represents intracellular free substrate concentration after time t (pmol/mg protein), cin,∞ extrapolated maximal intracellular free substrate concentration (pmol/mg protein), and kex efflux rate constant (1/min). Influx clearance was calculated as CLin = cin,∞/cex·kex (µl/mg protein/min), with cex extracellular free substrate concentration (pmol/µl). Statistical significance of differences between two treatments was evaluated by the unpaired two-tailed t-test or Mann-Whitney U-test, differences between more than two treatments by one-way ANOVA or Kruskal-Wallis test, as applicable. P<0.05 was considered statistically significant.

[1] = molecular target: T2, norepinephrine transporter (NET) (Homo sapiens, UniProt P23975); test: Specific uptake into norepinephrine transporter (NET) transfected HEK-293 cells; format: cell-based; conditions: 10 µmol/l, 5 min incubation
T2 construct: expressed in transfected cells; host or cells: HEK-293, stably transfected; cDNA from C; Pifl (University of Vienna)
T2 sequence (P23975 whole entry): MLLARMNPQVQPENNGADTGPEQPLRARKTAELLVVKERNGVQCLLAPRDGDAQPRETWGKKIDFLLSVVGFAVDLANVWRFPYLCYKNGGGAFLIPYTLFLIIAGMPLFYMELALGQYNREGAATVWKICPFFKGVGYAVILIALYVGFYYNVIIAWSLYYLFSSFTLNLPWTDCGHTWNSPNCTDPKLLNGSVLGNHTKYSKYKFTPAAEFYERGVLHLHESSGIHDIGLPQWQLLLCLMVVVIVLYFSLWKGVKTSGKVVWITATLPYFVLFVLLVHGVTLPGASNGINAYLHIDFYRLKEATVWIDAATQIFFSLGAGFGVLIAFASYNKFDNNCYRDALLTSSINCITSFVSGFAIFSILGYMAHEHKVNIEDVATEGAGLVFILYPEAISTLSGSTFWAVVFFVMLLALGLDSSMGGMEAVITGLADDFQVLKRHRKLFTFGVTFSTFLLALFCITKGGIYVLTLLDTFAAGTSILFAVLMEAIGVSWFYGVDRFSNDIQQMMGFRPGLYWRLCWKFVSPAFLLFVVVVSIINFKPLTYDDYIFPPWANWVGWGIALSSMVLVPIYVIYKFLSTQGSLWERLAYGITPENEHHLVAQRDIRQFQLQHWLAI
Text: Pifl (University of Vienna).
1. Burnette WB, Bailey MD, Kukoyi S, Blakely RD, Trowbridge CG, et al. (1996) Human norepinephrine transporter kinetics using rotating disk electrode voltammetry. Anal Chem 68: 2932–2938. (0.90 MB TIF) Click here for additional data file.

HTZ-146 cells = test: MTT reduction cell viability assay, HTZ-146 cells; format: cell-based, human
Description: Cell viability was assessed in HEK-293 cells, human dopaminergic neuroblastoma cells (SH-SY5Y) and human glioblastoma cells (HTZ-146) by the MTT test as described.[22] […] For indication of metabolic activity, cells were treated with MTT reagent (15 µl of 1 mg/ml stock solution per well) for 1 h, and after drying of culture plates for 1 h at 37°C, the resulting formazan dye was extracted with isopropanol/HCl (100 µl 0.04 mol/l per well) and absorbance was determined spectrophotometrically at 568 nm. Results were in agreement with the data obtained by the tryptan blue exclusion method (data not shown).

[2] = molecular target: T3, organic cation transporter OCT2 (wild-type 400R) (Homo sapiens, UniProt O15244, S270A); test: Specific uptake into OCT2 (wild-type) transfected HEK-293 cells vs empty vector, LC-MS-MS; conditions: for influx clearance Clin: specific uptake after incubation with 10 µmol/l, mean (s.e.m.), n = 3
T3 sequence (O15244 1-555 S270A): T1 sequence (O15244 1-555 S270A/R400C) with C400R

| SMILES | Km at 1 min (OCT2 variant R400C; human, pH 7.4) [µM] | substrate of NET (specific uptake) [1] | EC50 (HTZ-146 cells; Homo sapiens, 48 h, non-pretreated, read-out: EC50 (95% confidence interval), cell viability) [µM] | N-methylation of intracellular salsolinol (of salsolinol concentration) ([2]; after 60 min of incubation, transfected HEK-293 cells) [%] | influx clearance Clin [2] | Vmax (OCT2 variant R400C; 1 min of loading, mean (s.e.m.), listed as CHP) | clearance (Clin) of 400C relative to the 400R reference (OCT2 variant R400C; 400C vs wild-type 400R) [%] | transport efficiency (Vmax/Km) of 400C relative to the 400R reference (OCT2 variant R400C; 400C vs wild-type 400R) [%] | Clin (OCT2 variant R400C; mean (s.e.m.)) | Clin (OCT2 variant R400C; mean (s.e.m.), listed as CHP) | effect on glutamate-induced cytotoxicity (HTZ-146 cells; pre-treated 1 h with 10 µmol/l cyclo(his-pro)) | dependence of specific uptake on pH ([2]; 10 µmol/l, 3 min incubation) | dependence of specific uptake on extracellular sodium concentration ([2]; 10 µmol/l, 3 min incubation, sodium chloride isoosmotically replaced with lithium chloride) |
| --- | --- | --- | --- | --- | --- | --- | --- | --- | --- | --- | --- | --- | --- |
| CC1NCCc2cc(O)c(O)cc21 (stereo not drawn) [salsolinol] | 123 | no substrates of NET | 138 | ≤ 2.5 | 18.5 (2.6) µl/mg/min | – | – | – | – | – | – | – | – |
| O=C1NC(Cc2c[nH]cn2)C(=O)N2CCCC12 (stereo not drawn) [cyclo(his-pro), histidyl-proline diketopiperazine] | – | no substrates of NET | – | – | 25.0 (4.2) µl/mg/min | 1.0 (0.1) nmol/mg/min | 70 | 48 | 17.6 (1.5)^# µl/mg/min | 17.6 (1.5) µl/mg/min | prevented | pH influenced specific uptake | independent of extracellular sodium concentration |
